Results from patent publication US10555987B2, “GHRH agonists for the treatment of ischemic disorders” (UNIVERSITY OF MIAMI, priority 2012, dated 2020).
Non-standard residues stand in square brackets, D forms with d. Residues, ends and D or L forms follow the SMILES beside them. ξ: configuration not given here. *: point of attachment. Phe(F5) = N[C@@H](Cc1c(F)c(F)c(F)c(F)c1F)C(=O)O; Desaminotyrosyl = O=C(CCc1ccc(O)cc1)*; NMeY = CN[C@@H](Cc1ccc(O)cc1)C(=O)O; Nle = CCCC[C@H](N)C(=O)O; Orn = NCCC[C@H](N)C(=O)O; Abu = CC[C@H](N)C(=O)O; GABA = NCCCC(=O)O; ξA = CC(N)C(=O)O

Assays:
GH release [1] = test: In vivo endocrine activity, GH release after subcutaneous administration (Table 9); details: rat, subcutaneous (s.c.) injection
Method: Subcutaneous Administration. Adult male rats were used and anesthetized with pentobarbital (6 mg/100 g, b.w.), by i.p. injection. […] Blood samples were taken from the jugular vein 5, 15 and/or 30 minutes after the injection. The blood samples were centrifuged, plasma was removed and the GH level was measured byELISA. The results are summarized in terms of potency in Table 9.

GHRH receptor [2] = target: T1, GHRH receptor (Homo sapiens, UniProt Q02643); test: GHRH receptor binding, competition with 125I-labeled JV-1-42, human pituitary membrane homogenates (Table 7); design: Normal human pituitaries were purchased from the National Hormone and Peptide Program; tissue National Hormone and Peptide Program (A.F. Parlow, Harbor-UCLA Medical Center, Torrance, Calif.); host or cells: normal human pituitary, membrane fraction; details: JI-38 = 1, Table 7
T1 sequence (Q02643 23-423): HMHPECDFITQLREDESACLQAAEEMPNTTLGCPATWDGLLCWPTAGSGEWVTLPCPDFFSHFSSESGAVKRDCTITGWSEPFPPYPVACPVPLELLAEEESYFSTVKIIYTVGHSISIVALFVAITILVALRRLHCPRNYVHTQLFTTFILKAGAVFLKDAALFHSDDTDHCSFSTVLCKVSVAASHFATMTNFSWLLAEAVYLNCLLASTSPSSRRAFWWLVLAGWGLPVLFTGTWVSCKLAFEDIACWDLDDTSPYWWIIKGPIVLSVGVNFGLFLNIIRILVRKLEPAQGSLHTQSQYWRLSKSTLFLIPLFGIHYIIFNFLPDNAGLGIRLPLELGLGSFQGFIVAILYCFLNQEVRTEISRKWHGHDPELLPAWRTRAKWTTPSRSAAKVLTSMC
Source text: Normal human pituitaries were purchased from the National Hormone and Peptide Program (A.F. Parlow, Los Angeles, County Harbor-UCLA Medical Center, Torrance, Calif.).

GH release [3] = test: GH releasing potency in vivo, subcutaneous administration (Example 14, Table 12); design: species or system rat; details: s.c.
Method: Male Sprague-Dawley rats, weighing 200-250 g, were purchased from Charles River Laboratory (Wilmington, Mass.) and used for experiments. All animal procedures were approved by the Veterans Affairs Animal Care and Use Committee and were conducted in accordance with additional institutional guidelines as well. Briefly, groups of 5-6 animals were used in each experiment. The rats were anesthetized with 50 mg/kg of sodium pentobarbital (Nembutal, Lundbeck Inc., Deerfield, Ill.). Twenty min after inducing anesthesia, GHRH(1-29)NH2, JI-38, or new analogs were injected into the animals intravenously (i.v.) or subcutaneously (s.c.). The peptides were dissolved in 0.01 M acetic acid to get 1 μg/μl stock solution, and then diluted with 5% mannitol. Control rats received 5% mannitol only. Blood samples were collected from the jugular vein at selected times and were used for serum preparation. Concentrations of GH in rat sera were determined by ELISA. The relative potencies of tested peptides were calculated using GHRH(1-29)NH2 and JI-38 for comparison, whose potency was defined as 1. The equivalent dosage of GHRH(1-29)NH2 to reach the same level of serum growth hormone release after injection of the specific tested peptide was determined from a GHRH(1-29)NH2 standard curve using Origin 6.0 software. […] Serum GH was determined using the rat Growth Hormone ELISA kit (ALPCO Diagnostics, Mill Valley, Calif.) according to the manufacturer's instruction. Absorbance at 405 nm was measured by a Victor 3 Multi-label Counter (Perkin-Elmer, Waltham, Md.).

GHRH receptor [4] = target: T1, GHRH receptor; test: Receptor binding in vitro, 125I-labeled [His1,Nle27]-hGHRH(1-32)NH2, membrane receptors of human anterior pituitary cells (Table 14)

Compound	Relative affinity (Binding potency) vs JI-38 (GHRH receptor [2])	Relative affinity (Binding potency) compared to JI-38 (GHRH receptor [4]; JI-38 = 1)	Relative affinity (Binding potency) compared to hGHRH(1-29) (GHRH receptor [4]; hGHRH(1-29)NH2 = 1)	GH releasing potency relative to JI-38 (=1) (GH release [1]; 15 min after)	GH releasing potency relative to JI-38 (=1) (GH release [1]; 30 min after)	Serum GH level at selected time after injection (ng/ml), 0 min (GH release [3]; male rats, dose 3 μg/kg, 0 min, mean ± SEM) [ng/mL]	Serum GH level at selected time after injection (ng/ml), 15 min (GH release [3]; male rats, dose 3 μg/kg, 15 min, mean ± SEM) [ng/mL]	Serum GH level at selected time after injection (ng/ml), 30 min (GH release [3]; male rats, dose 3 μg/kg, 30 min, mean ± SEM) [ng/mL]	Relative potency compared to GHRH(1-29), 15 min (GH release [3]; 15 min)	Relative potency compared to JI-38, 15 min (GH release [3]; 15 min)	Relative potency compared to GHRH(1-29), 30 min (GH release [3]; 30 min)	Relative potency compared to JI-38, 30 min (GH release [3]; 30 min)
CCCC[C@H](NC(=O)[C@@H](NC(=O)[C@H](CC(=O)O)NC(=O)[C@H](CCC(N)=O)NC(=O)[C@H](CC(C)C)NC(=O)[C@H](CC(C)C)NC(=O)[C@H](CCCN)NC(=O)[C@H](CCCNC(=N)N)NC(=O)[C@H](C)NC(=O)[C@H](CO)NC(=O)[C@H](CC(C)C)NC(=O)[C@H](CCC(N)=O)NC(=O)[C@H](CC)NC(=O)[C@H](CC(C)C)NC(=O)[C@@H](NC(=O)[C@H](CCCN)NC(=O)[C@H](CCCNC(=N)N)NC(=O)[C@H](Cc1ccc(O)cc1)NC(=O)[C@H](CO)NC(=O)[C@H](CC(N)=O)NC(=O)[C@@H](NC(=O)[C@H](Cc1ccccc1)NC(=O)[C@@H](NC(=O)[C@H](C)NC(=O)[C@H](CC(=O)O)NC(=O)[C@@H](C)NC(=O)CCc1ccc(O)cc1)[C@@H](C)CC)[C@@H](C)O)C(C)C)[C@@H](C)CC)C(=O)N[C@@H](CC(=O)O)C(=O)N[C@@H](CCCNC(=N)N)C(=O)NC [Peptide P-27400, [Dat^1, D-Ala^2, Orn^12, Abu^15, Orn^21, Nle^27, Asp^28]hGHRH(1-29)NH—CH3] (Desaminotyrosyl-[dA]DAIFTNSYR[Orn]VL[Abu]QLSAR[Orn]LLQDI[Nle]DR-NHMe)	1.30			0.47	0.38							
CCCC[C@H](NC(=O)[C@@H](NC(=O)[C@H](CC(=O)O)NC(=O)[C@H](CCC(N)=O)NC(=O)[C@H](CC(C)C)NC(=O)[C@H](CC(C)C)NC(=O)[C@H](CCCN)NC(=O)[C@H](CCCNC(=N)N)NC(=O)[C@H](C)NC(=O)[C@H](CO)NC(=O)[C@H](CC(C)C)NC(=O)[C@H](CCC(N)=O)NC(=O)[C@H](CC)NC(=O)[C@H](CC(C)C)NC(=O)[C@@H](NC(=O)[C@H](CCCN)NC(=O)[C@H](CCCNC(=N)N)NC(=O)[C@H](Cc1ccc(O)cc1)NC(=O)[C@H](CO)NC(=O)[C@H](CCC(N)=O)NC(=O)[C@@H](NC(=O)[C@H](Cc1ccccc1)NC(=O)[C@@H](NC(=O)[C@H](C)NC(=O)[C@H](CC(=O)O)NC(=O)[C@H](C)NC(=O)CCc1ccc(O)cc1)[C@@H](C)CC)[C@@H](C)O)C(C)C)[C@@H](C)CC)C(=O)N[C@@H](CC(=O)O)C(=O)N[C@@H](CCCNC(=N)N)C(=O)NC [Peptide P-27407, [Dat^1, Gln^8, Orn^12, Abu^15, Orn^21, Nle^27, Asp^28]hGHRH(1-29)NH—CH3] (Desaminotyrosyl-ADAIFTQSYR[Orn]VL[Abu]QLSAR[Orn]LLQDI[Nle]DR-NHMe)	1.45	0.54	1.52			36.7 ± 10.2	248.0 ± 40.5	135.2 ± 10.8	69.6	1.10	122	1.09
CCCC[C@H](NC(=O)[C@@H](NC(=O)[C@H](CC(=O)O)NC(=O)[C@H](CCC(N)=O)NC(=O)[C@H](CC(C)C)NC(=O)[C@H](CC(C)C)NC(=O)[C@H](CCCN)NC(=O)[C@H](CCCNC(=N)N)NC(=O)[C@H](C)NC(=O)[C@H](CO)NC(=O)[C@H](CC(C)C)NC(=O)[C@H](CCC(N)=O)NC(=O)[C@H](CC)NC(=O)[C@H](CC(C)C)NC(=O)[C@@H](NC(=O)[C@H](CCCN)NC(=O)[C@H](CCCNC(=N)N)NC(=O)[C@H](Cc1ccc(O)cc1)NC(=O)[C@H](CO)NC(=O)[C@H](CC(N)=O)NC(=O)[C@@H](NC(=O)[C@H](Cc1ccccc1)NC(=O)[C@@H](NC(=O)[C@H](C)NC(=O)[C@H](CC(=O)O)NC(=O)[C@H](C)NC(=O)[C@H](Cc1ccc(O)cc1)NC)[C@@H](C)CC)[C@@H](C)O)C(C)C)[C@@H](C)CC)C(=O)N[C@@H](CO)C(=O)N[C@@H](CCCNC(=N)N)C(=O)NCCCC(=O)NC [Peptide P-27415, [N—Me-Tyr^1, Orn^12, Abu^15, Orn^21, Nle^27, Gab^30]hGHRH(1-30)NH—CH3] (H-[NMeY]ADAIFTNSYR[Orn]VL[Abu]QLSAR[Orn]LLQDI[Nle]SR[GABA]-NHMe)	1.44			0.45	0.41							

Continued, in another order:

Relative affinity (Binding potency) vs JI-38 (GHRH receptor [2])	Relative affinity (Binding potency) compared to JI-38 (GHRH receptor [4]; JI-38 = 1)	Relative affinity (Binding potency) compared to hGHRH(1-29) (GHRH receptor [4]; hGHRH(1-29)NH2 = 1)	Compound	GH releasing potency relative to JI-38 (=1) (GH release [1]; 15 min after)	GH releasing potency relative to JI-38 (=1) (GH release [1]; 30 min after)	Serum GH level at selected time after injection (ng/ml), 0 min (GH release [3]; male rats, dose 3 μg/kg, 0 min, mean ± SEM) [ng/mL]	Serum GH level at selected time after injection (ng/ml), 15 min (GH release [3]; male rats, dose 3 μg/kg, 15 min, mean ± SEM) [ng/mL]	Serum GH level at selected time after injection (ng/ml), 30 min (GH release [3]; male rats, dose 3 μg/kg, 30 min, mean ± SEM) [ng/mL]	Relative potency compared to GHRH(1-29), 15 min (GH release [3]; 15 min)	Relative potency compared to JI-38, 15 min (GH release [3]; 15 min)	Relative potency compared to GHRH(1-29), 30 min (GH release [3]; 30 min)	Relative potency compared to JI-38, 30 min (GH release [3]; 30 min)
1.78			CCCC[C@H](NC(=O)[C@@H](NC(=O)[C@H](CC(=O)O)NC(=O)[C@H](CCC(N)=O)NC(=O)[C@H](CC(C)C)NC(=O)[C@H](CC(C)C)NC(=O)[C@H](CCCN)NC(=O)[C@H](Cc1c[nH]cn1)NC(=O)[C@H](C)NC(=O)[C@H](CO)NC(=O)[C@H](CC(C)C)NC(=O)[C@H](CCC(N)=O)NC(=O)[C@H](CC)NC(=O)[C@H](CC(C)C)NC(=O)[C@@H](NC(=O)[C@H](CCCN)NC(=O)[C@H](Cc1c[nH]cn1)NC(=O)[C@H](Cc1ccc(O)cc1)NC(=O)[C@H](CO)NC(=O)[C@H](CCC(N)=O)NC(=O)[C@@H](NC(=O)[C@H](Cc1ccccc1)NC(=O)[C@@H](NC(=O)[C@H](C)NC(=O)[C@H](CC(=O)O)NC(=O)C(C)NC(=O)CCc1ccc(O)cc1)[C@@H](C)CC)[C@@H](C)O)C(C)C)[C@@H](C)CC)C(=O)N[C@@H](CC(=O)O)C(=O)N[C@@H](CCCNC(=N)N)C(=O)NC (stereo partly shown) [Peptide P-27413, [Dat^1, Gln^8, His^11, Orn^12, Abu^15, His^20, Orn^21, Nle^27, Asp^28]hGHRH(1-29)NH—CH3] (Desaminotyrosyl-[ξA]DAIFTQSYH[Orn]VL[Abu]QLSAH[Orn]LLQDI[Nle]DR-NHMe)	0.36	0.57							
2.79			CCCC[C@H](NC(=O)[C@@H](NC(=O)[C@H](CC(=O)O)NC(=O)[C@H](CCC(N)=O)NC(=O)[C@H](CC(C)C)NC(=O)[C@H](CC(C)C)NC(=O)[C@H](CCCN)NC(=O)[C@H](CCCNC(=N)N)NC(=O)[C@H](C)NC(=O)[C@H](CO)NC(=O)[C@H](CC(C)C)NC(=O)[C@H](CCC(N)=O)NC(=O)[C@H](CC)NC(=O)[C@H](CC(C)C)NC(=O)[C@@H](NC(=O)[C@H](CCCN)NC(=O)[C@H](CCCNC(=N)N)NC(=O)[C@H](Cc1ccc(O)cc1)NC(=O)[C@H](CO)NC(=O)[C@H](CC(N)=O)NC(=O)[C@@H](NC(=O)[C@H](Cc1c(F)c(F)c(F)c(F)c1F)NC(=O)[C@@H](NC(=O)[C@H](C)NC(=O)[C@H](CC(=O)O)NC(=O)[C@@H](C)NC(=O)[C@H](Cc1ccc(O)cc1)NC)[C@@H](C)CC)[C@@H](C)O)C(C)C)[C@@H](C)CC)C(=O)N[C@@H](CO)C(=O)N[C@@H](CCCNC(=N)N)C(=O)NCCCC(=O)NC [Peptide P-27414, [N—Me-Tyr^1, D-Ala^2, Fpa5^6, Orn^12, Abu^15, Orn^21, Nle^27, Gab^30]hGHRH(1-30)NH—CH3] (H-[NMeY][dA]DAI[Phe(F5)]TNSYR[Orn]VL[Abu]QLSAR[Orn]LLQDI[Nle]SR[GABA]-NHMe)	1.30	1.23							
